One test has as its target T1, human androgen receptor (Homo sapiens, UniProt P10275, T878A).
T1 construct: The cytosolic fractions of LNCaP cells, which contain the human androgen receptor, are used; endogenous in cells; host or cells: LNCaP cells (cytosolic fraction)
T1 sequence (P10275 1-920 T878A): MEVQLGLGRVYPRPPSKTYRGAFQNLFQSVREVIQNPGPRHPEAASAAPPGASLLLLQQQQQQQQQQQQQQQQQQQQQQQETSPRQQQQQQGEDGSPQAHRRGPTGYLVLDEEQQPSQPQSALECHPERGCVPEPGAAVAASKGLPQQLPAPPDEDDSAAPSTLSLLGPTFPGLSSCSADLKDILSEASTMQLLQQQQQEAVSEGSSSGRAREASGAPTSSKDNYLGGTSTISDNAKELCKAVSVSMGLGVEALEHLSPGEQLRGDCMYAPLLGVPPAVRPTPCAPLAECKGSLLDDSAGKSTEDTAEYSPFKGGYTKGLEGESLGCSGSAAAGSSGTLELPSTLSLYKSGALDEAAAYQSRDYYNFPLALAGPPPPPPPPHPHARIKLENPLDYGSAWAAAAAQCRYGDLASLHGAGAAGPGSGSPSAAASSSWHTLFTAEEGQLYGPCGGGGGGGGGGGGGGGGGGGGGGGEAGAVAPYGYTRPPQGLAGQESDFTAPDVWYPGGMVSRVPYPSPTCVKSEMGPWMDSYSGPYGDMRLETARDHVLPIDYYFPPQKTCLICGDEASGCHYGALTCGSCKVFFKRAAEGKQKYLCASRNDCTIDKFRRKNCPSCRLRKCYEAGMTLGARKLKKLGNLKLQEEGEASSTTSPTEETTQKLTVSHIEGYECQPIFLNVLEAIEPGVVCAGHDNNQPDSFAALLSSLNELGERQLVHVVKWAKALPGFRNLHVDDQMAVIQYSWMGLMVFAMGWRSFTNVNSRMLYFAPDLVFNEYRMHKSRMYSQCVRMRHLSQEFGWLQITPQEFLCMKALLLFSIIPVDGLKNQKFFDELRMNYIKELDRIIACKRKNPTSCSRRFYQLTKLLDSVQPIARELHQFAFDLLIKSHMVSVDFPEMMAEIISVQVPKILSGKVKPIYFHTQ
Description: Affinity for the human androgen receptor ([3H]methyltrienolone displacement, LNCaP cytosol). It is filed as binding. On the procedure: The following determination of the affinity of 3-α-OH-CMA or 3-β-OH-CMA for the human androgen receptor is based on the experimental methods published by Zava et al. (Endocrinology, 1979, vol. 104, pp. 1007-1012). The corresponding disclosure is hereby introduced as a reference and is part of the disclosure of the present application.
The cytosolic fractions of LNCaP cells, which contain the human androgen receptor, are used. The reference substance used is 0.5 nM of [^3H]methyltrienolone; 1 μM of mibolerone is used for determining nonspecific binding. The incubation period of the substances ([^3H]methyltrienolone, 3-α-OH-CMA or 3-β-OH-CMA) on the receptor amounts in each case to 24 hours at a temperature of approx. 4° C. The stock solutions, the dilution series of 3-α-OH-CMA or 3-β-OH-CMA, the washing steps, the determination of radioactivity, and the methods for calculating the particular IC50 and Ki values match the experimental protocol described in point 2).

Test [1] deals with T2, human progesterone receptor (Homo sapiens, UniProt P06401).
T2 construct: The cytosolic fractions of MCF-7 cells, which contain the human progesterone receptor, are used; endogenous in cells; host or cells: MCF-7 cells (cytosolic fraction)
T2 sequence (P06401 1-933): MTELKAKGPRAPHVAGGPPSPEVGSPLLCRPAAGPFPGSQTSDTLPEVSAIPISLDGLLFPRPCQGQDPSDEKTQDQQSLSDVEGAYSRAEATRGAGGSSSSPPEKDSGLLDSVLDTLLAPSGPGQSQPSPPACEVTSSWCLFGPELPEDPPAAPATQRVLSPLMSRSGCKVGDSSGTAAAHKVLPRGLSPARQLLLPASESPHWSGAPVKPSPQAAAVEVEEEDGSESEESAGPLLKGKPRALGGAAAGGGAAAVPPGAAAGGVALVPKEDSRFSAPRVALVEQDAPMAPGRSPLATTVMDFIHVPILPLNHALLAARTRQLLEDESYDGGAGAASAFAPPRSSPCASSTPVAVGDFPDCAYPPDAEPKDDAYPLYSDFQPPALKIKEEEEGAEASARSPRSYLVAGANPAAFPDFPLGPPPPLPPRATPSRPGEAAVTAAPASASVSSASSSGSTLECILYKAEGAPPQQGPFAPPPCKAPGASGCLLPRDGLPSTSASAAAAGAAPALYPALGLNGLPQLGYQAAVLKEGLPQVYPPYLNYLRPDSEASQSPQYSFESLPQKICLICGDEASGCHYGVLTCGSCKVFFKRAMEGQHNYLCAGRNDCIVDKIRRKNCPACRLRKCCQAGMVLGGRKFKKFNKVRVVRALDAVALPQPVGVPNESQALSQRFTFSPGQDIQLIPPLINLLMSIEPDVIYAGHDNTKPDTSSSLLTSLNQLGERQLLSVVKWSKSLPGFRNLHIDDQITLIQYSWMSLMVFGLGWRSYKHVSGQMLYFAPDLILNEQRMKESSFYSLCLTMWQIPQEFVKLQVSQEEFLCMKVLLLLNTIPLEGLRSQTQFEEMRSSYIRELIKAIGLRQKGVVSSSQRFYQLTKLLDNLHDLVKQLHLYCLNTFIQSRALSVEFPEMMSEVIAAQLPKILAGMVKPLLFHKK
Description: Affinity for the human progesterone receptor ([3H]R 5020 displacement, MCF-7 cytosol). In kind it is binding. The note with it: for IC50: 2 nM [3H]R 5020, MCF-7 cytosol, 20 hours, approx. 4° C.; for Ki: Cheng-Prusoff from IC50. As to the method: The following determination of the affinity of 3-α-OH-CMA or 3-β-OH-CMA for the human progesterone receptor is based on the experimental methods published by Eckert et al. (Cancer Research, 1982, vol. 42, pp. 139-144). The corresponding disclosure is hereby introduced as a reference and is part of the disclosure of the present application.
The cytosolic fractions of MCF-7 cells, which contain the human progesterone receptor, are used. The reference substance used is 2 nM of [^3H] R 5020; 1 μM of R 5020 is used for determining nonspecific binding. The incubation period of the substances ([^3H] R 5020, 3-α-OH-CMA or 3-β-OH-CMA) on the receptor amounts in each case to 20 hours at a temperature of approx. 4° C. Stock solutions (5×10^−2 M) of 3-α-OH-CMA or 3-β-OH-CMA are in each case prediluted 1:10 in 75% strength DMSO and then further diluted 1:5 in 25% strength DMSO. The final concentrations of 3-α-OH-CMA or 3-β-OH-CMA in the test are 3×10^−10 M, 3×10^−9 M, 1×10^−8 M, 3×10^−8 M, 1×10^−7 M, 3×10^−7 M, 1×10^−6 M and 1×10^−5 M. After the above-stated incubation period of the substances, the incubation batches are filtered using standard methods and washed and the radioactivity of the filters is determined with a scintillation counter. Such standard methods are known to a person skilled in the art. The experiments are in each case carried out on duplicate batches.
The corresponding IC50 values are calculated by nonlinear regression analysis of the displacement curves using the Hill curve fitting formula. A person skilled in the art is aware of such a calculation procedure.
The corresponding Ki values (inhibition constants) are determined using the Cheng-Prusoff equation (Ki=IC50/(1+(L/KD)), where L denotes the concentration of the radioligand in the test and KD the affinity of the radioligand for the receptor).

For another test, the system named is GABAA receptors. Description: Influence on the binding of [3H]muscimol to GABAA receptors (rat cerebral cortex membranes). To be noted: 5 nM [3H]muscimol. As to the method:
The following determinations of the influence of allopregnanolone, 3-α-OH-CMA or 3-β-OH-CMA on the binding of muscimol to GABAA receptors (rat) are based on the experimental methods published by Snodgrass, S. R. (Nature, 1979, vol. 273, p. 392-394). The corresponding disclosure is hereby introduced as a reference and is part of the disclosure of the present application.
Membrane preparations are produced from rat cerebral cortex material. The reference substance used is 5 nM of [^3H] muscimol; 10 μM of muscimol are used for determining nonspecific binding. The incubation period of the substances ([^3H]muscimol, allopregnanolone) on the receptor amounts in each case to 10 minutes at a temperature of approx. 4° C. The stock solution (5×10^−2 M) of allopregnanolone is in each case prediluted 1:10 in 75% strength DMSO and then further diluted 1:5 in 25% strength DMSO. The final concentration of allopregnanolone in the test is in each case 1×10^−10 M, 1×10^−9 M, 1×10^−8 M, 1×10^−7 M, 1×10^−6 M and 1×10^−5 M. After the above-stated incubation period of the substances, the incubation batches are filtered using standard methods and washed and the radioactivity of the filters is determined with a scintillation counter. Such standard methods are known to a person skilled in the art. The experiments are in each case carried out on duplicate batches.
The influence of 3-α-OH-CMA or 3-β-OH-CMA on the binding of muscimol to GABAA receptors (rat) is determined in a manner similar to the above-described method. 3-α-OH-CMA or 3-β-OH-CMA is used instead of allopregnanolone.

Structures are written as SMILES.

At human androgen receptor, `CC(=O)O[C@]1(C(C)=O)CC[C@H]2[C@@H]3C=C(Cl)C4=C[C@H](O)CC[C@]4(C)[C@H]3CC[C@@]21C` [3-α-OH-CMA, 3α-hydroxy-6-chloro-17α-acetoxy-4,6-pregnadien-20-one] showed an IC50 of 100 nM and an inhibition constant Ki of 83 nM. In test [1], this compound displayed an IC50 of 39 nM and a Ki of 13 nM. The “increase of binding of radioactively labelled muscimol” value (“increase” for short) with GABAA receptors (0.001 μM test substance) was found to be 12%.
As to `CC(=O)O[C@]1(C(C)=O)CC[C@H]2[C@@H]3C=C(Cl)C4=C[C@@H](O)CC[C@]4(C)[C@H]3CC[C@@]21C` [3-β-OH-CMA, 3β-hydroxy-6-chloro-17α-acetoxy-4,6-pregnadien-20-one], on human androgen receptor, the IC50 stood at 25 nM and the Ki was 20 nM. For the same compound, in test [1], the IC50 stood at 18 nM and the Ki amounted to 6 nM. Further, in the test with GABAA receptors (0.1 μM test substance), the “increase” value is 31%.
Turning to `CC(=O)[C@H]1CC[C@H]2[C@@H]3CC[C@H]4C[C@H](O)CC[C@]4(C)[C@H]3CC[C@]12C` [allopregnanolone, reference compound], the “increase” value with GABAA receptors (1 μM test substance, 10 min, approx. 4° C.) is listed as 38%.

The values above are taken from patent US20080312200A1, “Medicament Comprising A Hormone Combination” (Grunenthal GmbH, priority 2006, published 2008).
